Measurements: article PMC5581131, “The novel sphingosine-1-phosphate receptors antagonist AD2900 affects lymphocyte activation and inhibits T-cell entry into the lymph nodes” (Oncotarget, 2017)

Columns and labels:
Jurkat cell line = experiment: XTT viability assay, Jurkat; assay type: cell-based, human; conditions: 1-day treatment
Protocol: Figure 1 AD2900 inhibits human lymphocyte proliferation in allogeneic activation (A, B) The levels of proliferative response of human peripheral blood lymphocytes (PBMCs) after 1-day pretreatment with different concentrations of AD2900, AD2750, YZ138, YZ158, and YZ297 (A) or AD2900, FTY720, and SEW2871 (B) were tested by human allogeneic mixed lymphocyte reaction (MLR) assay, followed by a [3H] thymidine incorporation analysis. (C) Apoptosis of AD2900-treated activated PBMCs was tested by AnnexinV-propidium iodide (PI) FACS analysis following 1-day AD2900 pretreatment and MLR. All the samples were compared to the untreated PBMC control. (D) IFN-γ secretion from activated PBMCs was tested by ELISA following a 1-day AD2900 pretreatment in MLR. On the 5th day of hMLR, supernatants were collected and assayed for the level of IFN-γ. (E) Jurkat cell viability after a 1-day treatment with different concentrations of AD2900, FTY720, and SEW2871 was tested by XTT viability assay. (F) H9, CEM/C1, and Molt4 cell viability after a 1-day treatment with different concentrations of AD2900 was tested by XTT viability assay. Graphs summarize the results of at least three independent experiments. Results of Student’s t-test: *(P < 0.05, two-tailed test), ** (P < 0.01, two-tailed test), *** (P < 0.001, two-tailed test), **** (P < 0.0001, two-tailed test). […]

C57BL/6 mice = experiment: T-cell subpopulations (naive, Tcm-like, Tef/em-like) in blood, spleen and lymph nodes, FACS; assay type: in vivo, mouse
Protocol: We have shown that AD2900 has a unique effect on T-cell distribution in mice. Since T-cell subpopulations such as naïve T cells, central memory T cells (Tcm), and effector/effector memory T cells (Tef/em) have designated roles in the immune response, the influence of AD2900 on the localization of these subpopulations was investigated. The analysis of T-cell subpopulations was performed by FACS using antibodies against commonly accepted surface markers. Some of the molecules that we used as markers are involved in T-cell migration, and their expression can be affected by our treatment. […] Therefore, we refer to the CCR7-CD44+ T-cell population as Tef/em-like cells and to the CCR7+ CD44+ (Figure 6) or CD44+ CD62L+ (Supplementary Figure 4B) T-cell population as Tcm-like cells. The calculated cell number of the different subpopulations in control mice is shown in the left panel of Figure 6.
Figure 6 AD2900 treatment influences the distribution of mice T-cell populations in the blood, spleen, and peripheral lymph nodes C57BL/6 mice were orally administered with AD2900 or FTY720, as shown in Figure 4. Leukocytes from blood, spleen, and pLNs were collected and stained with TCR-β, CD44, and CCR7 fluorescent antibodies and then analyzed by FACS analysis. The percentages of CCR7+ CD44+ Tcm-like cells (left panel), CCR7-CD44+ Tef/em-like cells (central panel), and CCR7 + CD44-naive T cells (right panel) of the total T-cell population (TCR-β+) in blood (A), spleen (B), and pLNs (C) are shown. All the significances are compared to untreated healthy mice. Results summarize three independent experiments. Results of Student’s t-test:*(P < 0.05, two-tailed test), ** (P < 0.01, two-tailed test), *** (P < 0.001, two-tailed test), **** (P < 0.0001, two-tailed test).
Murine lymphocytes: The phenotype of murine lymphocytes was analyzed by flow cytometry using anti-CD3e-FITC, anti-CD19-PB, anti-CCR7-APC, anti-CD44-FITC, anti-CD62L-APC, and anti-TCR-β-PB (Biolegend, CA, USA).
C57BL/6 female mice aged 7–8 weeks were obtained from Harlan Laboratories (Jerusalem, Israel). The animal study was conducted under appropriate conditions and was approved by the Institutional Animal Care and Use Committee of the Hebrew University of Jerusalem in accordance with the national laws and regulations for the protection of animals. AD2900 was dissolved in 10% BSA (MP Biomedicals, CA, USA) in DDW at 1 mg/ml and then further diluted in 200 ml water to get final concentrations at 1.8, 2.7, or 3.6 mg/l. AD2900 and FTY720 were supplied ad libitum to the mice for 2 days or 7 days. At the end of the experiment, blood was collected, and the mice were sacrificed and tissues (lymph nodes and spleen) were harvested.

S1P3 = target: T1, S1P3 (Homo sapiens, UniProt Q99500); experiment: S1P3 agonist test, S1P3 NFAT-bla CHO cells; assay type: cell-based; conditions: S1P3 NFAT-BLA CHO cell line
T1 construct: expressed in transfected cells; host or cells: S1P3 NFAT-bla CHO cells
T1 sequence (Q99500 whole entry): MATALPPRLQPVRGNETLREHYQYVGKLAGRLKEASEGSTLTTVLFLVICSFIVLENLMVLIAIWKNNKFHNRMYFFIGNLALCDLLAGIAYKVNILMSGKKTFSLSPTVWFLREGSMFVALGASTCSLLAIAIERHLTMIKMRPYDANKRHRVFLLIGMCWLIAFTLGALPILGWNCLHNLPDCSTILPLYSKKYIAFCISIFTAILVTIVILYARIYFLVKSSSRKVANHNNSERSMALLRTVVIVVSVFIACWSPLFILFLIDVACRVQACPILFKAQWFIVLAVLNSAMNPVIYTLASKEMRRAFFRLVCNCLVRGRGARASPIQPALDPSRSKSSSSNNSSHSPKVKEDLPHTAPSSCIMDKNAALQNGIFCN
Protocol: Since AD2900 is a sphingolipid analogue with properties that resemble those of S1P, we intended to examine its ability to interact with the S1P receptors. To delineate whether AD2900 can function as an agonistic or antagonistic compound to any of the S1P receptors, we used a high-throughput screening cell-based assay, employing cell lines stably transfected with human S1P receptors 1, 2, 3, 4, or 5 [37]. In this experiment, a compound with an IC50 or EC50 value ≤10 μM for a certain S1P receptor is considered active as an antagonist or an agonist, respectively. The results illustrate that AD2900 acts as an antagonist to all S1P receptors (Table 1, Supplementary Figure 3). […] No agonist activation was evident.
The S1P1 agonist test and S1P2, S1P3, S1P4, and S1P5 agonist and antagonist tests were conducted as previously described using S1P1 CRE-bla CHO cells, S1P2 CRE-bla CHO cells, S1P3 NFAT-bla CHO cells, Tango™ S1P4 (EDG6)-bla U-2 OS cells, and Tango™ S1P5 ([…])-bla U-2 OS cells. The S1P1 antagonist assay was carried out according to the manufacturer’s instructions using a Tango™ S1P1 (EDG1)-bla U-2 OS Cell-Based Assay (Invitrogen, NY, USA).

[1] = oral, as in Figure 4, % of total T cells

CCCCCCCCCCCCCCCCNC(CO)(CO)CO [AD2900]
concentrations leading to reduced viability of Jurkat cells (Jurkat cell line): higher than 10 μM
effect on Jurkat viability compared to FTY720 and SEW2817 (Jurkat cell line): lower than that with FTY720 treatment and higher than that with SEW2817
Tcm-like cells in the blood and lymph nodes (C57BL/6 mice; compared to control): significantly downregulated
percentage of Tcm-like cells in the spleen (C57BL/6 mice; compared to control): significantly upregulated
percentage of naïve T-cell population among all T cells in the lymph nodes (C57BL/6 mice; compared with the untreated condition): remained the same
upregulation of the percentage of Tef/em-like cells in the blood (C57BL/6 mice; oral, as in Figure 4): 48% ± 1%
naïve T cells (CCR7+CD44-) reduced, mean of up to, of that in the control, in the blood (C57BL/6 mice; [1]): 32% ± 6%
naïve T cells (CCR7+CD44-) reduced, of that in the control, in the spleen (C57BL/6 mice; [1]): 38% ± 12%
EC50 (S1P3): > 50 µM
